From article PMC2746568 (Journal of medicinal chemistry, 2009)
“Also recorded” adds a separate entry of the source.

Assays:
[1] = In vitro human microsomal metabolism; details: for Predicted EH (hepatic extraction ratio): estimated from measured rate of degradation in vitro; for Predicted EH (hepatic extraction ratio) / microsomal CLint at 1 µM: human; for microsomal CLint at 1 µM: pooled human liver microsomes; for Putative metabolites: human liver microsomes, LC/MS
PbDHODH = PbDHODH (Plasmodium berghei, UniProt A0A509AEH5); assay: PbDHODH steady-state inhibition assay; assay type: biochemical; details: PbDHODH vs PfDHODH
[2] = Mouse pharmacokinetics after oral dosing; assay type: in vivo, mice; details: for adverse reactions in plasma exposure study: single and repeat dosing; for plasma levels reached after single oral dose: uninfected mice
P. berghei = P. berghei mouse in vivo efficacy testing; parameters: species or system Plasmodium berghei in mice; details: for ill effects from compound administration: oral 100 mg/kg/dose every 4 h × 10, then every 6 h × 6; for impact on parasite blood levels in P. berghei mouse model: oral 100 mg/kg/dose every 4 hours × 10 doses, then every 6 hours × 6 doses
Pf 3D7 cells = details: read-out: EC50 against P. falciparum in whole cell assays; cited from earlier work
in vitro = details: human, microsomes
PfDHODH = PfDHODH (Plasmodium falciparum, UniProt Q08210); details: unsubstituted phenyl; cited from earlier work
Chain of PfDHODH (Q08210 158-569): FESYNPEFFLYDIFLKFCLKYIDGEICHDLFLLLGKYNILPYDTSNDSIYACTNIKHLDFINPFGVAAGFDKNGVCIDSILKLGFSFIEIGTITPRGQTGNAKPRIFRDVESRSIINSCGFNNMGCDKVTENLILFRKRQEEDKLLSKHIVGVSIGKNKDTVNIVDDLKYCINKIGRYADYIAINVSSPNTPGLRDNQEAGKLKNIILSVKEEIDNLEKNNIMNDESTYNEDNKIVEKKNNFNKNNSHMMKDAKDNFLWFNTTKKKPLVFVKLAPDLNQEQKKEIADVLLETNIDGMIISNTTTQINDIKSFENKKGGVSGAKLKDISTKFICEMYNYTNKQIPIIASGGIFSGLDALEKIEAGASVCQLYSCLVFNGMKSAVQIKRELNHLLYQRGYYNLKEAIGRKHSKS

With Cc1cc(Nc2ccc(Br)c(C(F)(F)F)c2)n2ncnc2n1 [Compound 42, (4-Bromo-3-trifluoromethyl-phenyl)-(5-methyl-[1,2,4]triazolo[1,5-a]pyrimidin-7-yl)-amine] as the molecule, how does the “Predicted EH (hepatic extraction ratio)” value [1] read?
The value was 0.43.

What about the microsomal CLint at 1 µM [1] of the same molecule?
The microsomal CLint at 1 µM was 14 µL/min/mg.

With Cc1cc(Nc2ccc3cc4ccccc4cc3c2)n2ncnc2n1 [Compound 3, (5-Methyl-[1,2,4]triazolo[1,5-a]pyrimidin-7-yl)-anthracen-2-yl-amine] as the molecule, how does the “IC50 fold higher for PbDHODH than for PfDHODH” value (PbDHODH) read?
Its value is 66 fold.

And the “plasma concentrations after last dose of repeat dosing relative to single dose” value ([2]; mice, 50 mg/kg oral for 2 to 4 days)?
The value was “significantly reduced”.

And the “plasma concentrations maintained over 240 min” value ([2]; mice, 50 mg/kg oral single dose)?
Its value is 1000 to 3000 nM.

What about the observed plasma levels ([2]; mice, 50 mg/kg oral, repeat dosing) of the same molecule?
Its observed plasma levels is ~ 1 µM.

What about the “adverse reactions in plasma exposure study” value ([2]; mice, 50 mg/kg oral) of the same molecule?
Its value is “No adverse reactions”.

And the “plasma levels reached after single oral dose” value ([2]; 50 mg/kg oral single dose)?
The value was 2000 to 3000 nM.

And the “ill effects from compound administration” value (P. berghei; infected mice)?
Its value is “no major ill effects”.

What about the “impact on parasite blood levels in P. berghei mouse model” value (P. berghei) of the same molecule?
The value was “neither compound had any impact”.

What about the “Predicted EH (hepatic extraction ratio)” value [1] of the same molecule?
The value was 0.70.

What about the microsomal CLint at 1 µM [1] of the same molecule?
The microsomal CLint at 1 µM was 37 µL/min/mg.

With Cc1cc(Nc2ccc(C#N)c(C(F)(F)F)c2)n2ncnc2n1 [Compound 45, 4-(5-Methyl-[1,2,4]triazolo[1,5-a]pyrimidin-7-ylamino)-2-trifluoromethyl-benzonitrile] as the molecule, how does the Putative metabolites [1] read?
Its Putative metabolites is “no metabolites were detected; also recorded: None detected”.

What does the source list for Cc1cc(Nc2ccc3ccccc3c2)n2ncnc2n1 [Compound 2, (5-methyl-[1,2,4]triazolo[1,5-a]pyrimidin-7-yl)-naphthalen-2-yl-amine]?
plasma levels at 240 min on day 4 of repeat dosing ([2]; mice, 50 mg/kg oral 1x daily repeat dosing): nearly undetectable; adverse reactions in plasma exposure study ([2]; mice, 50 mg/kg oral): No adverse reactions; plasma levels reached after single oral dose ([2]; 50 mg/kg oral single dose): 2000 to 3000 nM; ill effects from compound administration (P. berghei; infected mice): no major ill effects; impact on parasite blood levels in P. berghei mouse model (P. berghei; 100 mg/kg): no activity; also recorded: neither compound had any impact; EC50 (Pf 3D7 cells): 80 nM; microsomal CLint (in vitro): 96 µL/min/mg

Which “Predicted EH (hepatic extraction ratio)” value [1] does the source give for Cc1cc(Nc2cccc(C(F)(F)F)c2)n2ncnc2n1 [Compound 16, (5-Methyl-[1,2,4]triazolo[1,5-a]pyrimidin-7-yl)-(3-trifluoromethyl-phenyl)-amine] here?
Its value is 0.62.

What about the microsomal CLint at 1 µM [1] of the same molecule?
The microsomal CLint at 1 µM was 29 µL/min/mg.

For Cc1cc(Nc2ccc(F)c(C)c2)n2ncnc2n1 [Compound 40, (4-Fluoro-3-methyl-phenyl)-(5-methyl-[1,2,4]triazolo[1,5-a]pyrimidin-7-yl)-amine], which “Predicted EH (hepatic extraction ratio)” value [1] is on record?
The value was 0.64.

And the microsomal CLint at 1 µM [1]?
Its microsomal CLint at 1 µM is 31 µL/min/mg.

With Cc1cc(Nc2ccc(C(F)(F)F)c(F)c2)n2ncnc2n1 [Compound 47, (3-Fluoro-4-trifluoromethyl-phenyl)-(5-methyl-[1,2,4]triazolo[1,5-a]pyrimidin-7-yl)-amine] as the molecule, how does the Putative metabolites [1] read?
Its Putative metabolites is “no metabolites were detected; also recorded: None detected”.

For Cc1cc(Nc2ccc(Cl)c(C(F)(F)F)c2)n2ncnc2n1 [Compound 41, (4-Chloro-3-trifluoromethyl-phenyl)-(5-methyl-[1,2,4]triazolo[1,5-a]pyrimidin-7-yl)-amine], which “Predicted EH (hepatic extraction ratio)” value [1] is on record?
Its value is 0.42.

And the microsomal CLint at 1 µM [1]?
Its microsomal CLint at 1 µM is 13 µL/min/mg.

Which results are given for Cc1cc(Nc2ccc(C(F)(F)F)cc2)n2ncnc2n1 [Compound 21, (5-Methyl-[1,2,4]triazolo[1,5-a]pyrimidin-7-yl)-(4-trifluoromethyl-phenyl)-amine]?
time plasma concentrations maintained above 1 µM (0.29 µg/mL) ([2]; mice, single oral dose 50 mg/kg): 16 h; adverse reactions after oral administration ([2]; mice, single oral dose 20 or 50 mg/kg): No adverse reactions; adverse reactions in efficacy study (P. berghei; infected mice, 50 mg/kg oral q.d. or b.i.d. for 4 days): No adverse reactions; microsomal CLint (in vitro): 7.5 µL/min/mg

Which results are given for Cc1cc(Nc2cccc(F)c2)n2ncnc2n1 [Compound 13, (3-Fluoro-phenyl)-(5-methyl-[1,2,4]triazolo[1,5-a]pyrimidin-7-yl)-amine]?
Predicted EH (hepatic extraction ratio) [1]: 0.50; microsomal CLint at 1 µM [1]: 18 µL/min/mg

For Cc1cc(Nc2cccc(Cl)c2)n2ncnc2n1 [Compound 14, (3-Chloro-phenyl)-(5-methyl-[1,2,4]triazolo[1,5-a]pyrimidin-7-yl)-amine], which microsomal CLint (in vitro) is on record?
Its microsomal CLint is 38 µL/min/mg.

With Cc1cc(Nc2ccccc2)n2ncnc2n1 [Compound 4] as the molecule, how does the “activity (in words)” value (PfDHODH) read?
Its value is “completely inactive”.
